What follows are compounds tested against T1, Follicle Stimulating Hormone Receptor (FSHR) (Homo sapiens, UniProt P23945) (assay: HTRF cAMP agonist assay, FSHR, transiently transfected CHO-K1 cells). Details: CHO-K1 cells transiently expressing human FSHR, read-out: IC50 FSHR LANCE CAMP.
T1 construct: HA (N); expressed in transfected cells; host or cells: CHO-K1, transient transfection, pHM6 vector (CMV promoter)
T1 sequence (P23945 18-695): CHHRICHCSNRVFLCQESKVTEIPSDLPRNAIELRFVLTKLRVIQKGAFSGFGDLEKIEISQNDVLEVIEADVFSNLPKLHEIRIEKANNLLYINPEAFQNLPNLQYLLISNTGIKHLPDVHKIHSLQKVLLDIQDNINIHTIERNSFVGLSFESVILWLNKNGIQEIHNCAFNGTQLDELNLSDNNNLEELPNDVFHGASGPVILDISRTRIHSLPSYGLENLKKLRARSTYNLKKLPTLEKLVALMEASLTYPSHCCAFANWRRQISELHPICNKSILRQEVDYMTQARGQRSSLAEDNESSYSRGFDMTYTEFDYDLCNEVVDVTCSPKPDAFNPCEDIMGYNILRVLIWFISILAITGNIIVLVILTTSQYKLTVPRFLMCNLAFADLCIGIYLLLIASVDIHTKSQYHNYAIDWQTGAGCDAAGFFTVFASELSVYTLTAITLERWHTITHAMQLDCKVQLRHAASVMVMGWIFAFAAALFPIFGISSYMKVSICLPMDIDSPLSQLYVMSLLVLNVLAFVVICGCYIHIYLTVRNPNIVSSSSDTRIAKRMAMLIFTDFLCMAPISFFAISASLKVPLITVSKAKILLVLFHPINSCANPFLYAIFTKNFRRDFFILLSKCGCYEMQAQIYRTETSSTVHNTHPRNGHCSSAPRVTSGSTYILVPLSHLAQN
Assay type: cell-based
Description: Example 17. HTRF cAMP Agonist Assay Protocol (for FSHR, TSHR, LHCGR)
Mammalian expression vectors designed to express either Follicle Stimulating Hormone Receptor (FSHR), Thyroid Stimulating Hormone Receptor (TSHR), or Luteinizing Hormone/Choriogonadotropin Receptor (LHCGR), were generated with an HA-tag on the N-terminus. All constructs were expressed under a human cytomegalovirus (CMV) immediate early enhancer and promoter using the pHM6 expression vector. The protein coding region was confirmed by sequence analysis to be in-frame and of the expected sequence, matching the following accession numbers: FSHR NM_000145, TSHR NM_000369, and LHCGR NM_000233.
HTRF cAMP assays were performed using Chinese Hamster Ovary (CHO-K1) cell lines transiently expressing human FSH, TSH, and LHCG receptors. 48 hours before the assay, cells were washed with PBS and then dissociated from tissue culture flasks with 0.25% trypsin. Dissociated cells were quenched in full media (F-12K Medium Corning REF #10-025-CV, 10% Avantor Seradigm FB Essence Cat #10803-034, 1% Penicillin/Streptomycin Cytiva HyClone Cat #SV30010) and then collected by centrifugation at 290×g for 5 min. Cells were resuspended in full media and dispensed into 150 mm cell culture dishes (Nest Scientific Cat #715001), at 2.3×10^6 cells/flask. 7 hours later, cells were transfected using Lipofectamine transfection reagent (Invitrogen Cat #18324020). Briefly, 60 μL of lipofectamine was dispensed into 2 mL of Opti-MEM (Gibco Cat #31985070) and incubated for 5 minutes at room temperature. Then, the mixture was added onto […] of DNA and incubated for another 20 minutes at room temperature. Cells were washed with warm (37° C.) PBS. 17.5 mL of Opti-MEM was dispensed onto the cells, followed by addition of the Opti-MEM/lipofectamine/DNA mixture. Cells were incubated overnight in a 37° C., 5% CO2 cell incubator. 17-19 hours later, Opti-MEM was aspirated off the cells and replaced with full media. Cells were incubated for another 24 hours in a 37° C., 5% CO2 cell incubator.
On the day of the assay, cells were washed with PBS and then dissociated from tissue culture flasks with 0.25% trypsin. Dissociated cells were quenched in full media and then collected by centrifugation at 290×g for 5 min. Cells were resuspended in PBS^+/+ (Corning REF #20-030-CV) to a concentration of 2×10^5 cells/mL. 10 μL/well of cells (2,000 cells/well) were dispensed into 384-well Corning plates (REF #3825), in triplicate. Cells were incubated at room temperature for 2 hours.
Example FSHR Modulator compounds were diluted in assay buffer (PBS^+/+, 0.05% BSA Sigma-Aldrich A3059, 500 μM IBMX Sigma-Aldrich 15879) to 3.5× the final assay concentration. 4 μL of test agonist was added to the cells and incubated for 1 hour at room temperature. 10 μL of cAMP detection reagents (LANCE Ultra cAMP Detection Kit PerkinElmer TRF0264) were dispensed onto the cells and plates were incubated for 2 hours at room temperature (cAMP detection reagents were made according to the PerkinElmer kit protocol). Plates were read on an Envision plate reader following PerkinElmer guidelines.
Raw data for all assays was transmitted directly from plate readers into a database for processing. All assay plates contained both positive and negative control wells to allow for data normalization and scaling. In agonist assays, negative control wells contained assay buffer and positive control wells contained […] positive control (10 nM Follicle Stimulating Hormone Sigma-Aldrich F4021, 50 nM Thyroid Stimulating Hormone Sigma-Aldrich 869006, 50 nM Luteinizing Hormone MyBioSource MBS5308806, for their respective receptors). All control wells contained DMSO at a final assay concentration that matched the test compound wells. […]
Percent control data were analyzed by non-linear regression with a sigmoidal dose response algorithm in the database to yield potency and efficacy data.

Compound | IC50
COc1cc2oc3c(C(=O)N4CCOCC4(C)C)n(-c4ccsc4)nc3c2cc1-c1cncc(C(N)=O)c1 [Compound 4-03A] | 1.86 µM
COc1cc2oc3c(C(=O)N4CCOCC4(C)C)nn(-c4ccsc4)c3c2cc1-c1cncc(C#N)c1 [Compound 4-03B] | 2.36 µM
COc1cc2oc3c(C(=O)N(C)C(C)(C)C)n(-c4ccsc4)nc3c2cc1-c1cncc(C(N)=O)c1 [Compound 4-04A] | 1.36 µM
COc1cc2c(cc1Br)-c1c(c(C(=O)N3CCOCC3(C)C)nn1-c1cc(Cl)cc(Cl)c1)CC2 [Compound 6-01A, [8-bromo-1-(3,5-dichlorophenyl)-7-methoxy-4,5-dihydrobenzo[g]indazol-3-yl]-(3,3-dimethylmorpholin-4-yl)methanone] | 1.09 µM
COc1cc2c(cc1-c1cncc(C#N)c1)-c1c(c(C(=O)N3CCOCC3(C)C)nn1-c1cc(Cl)cc(Cl)c1)CC2 [Compound 6-01B, 5-[1-(3,5-dichlorophenyl)-3-(3,3-dimethylmorpholine-4-carbonyl)-7-methoxy-4,5-dihydrobenzo[g]indazol-8-yl]pyridine-3-carbonitrile] | 0.0333 µM
COc1cc2c(cc1Br)-c1c(c(C(=O)N(C)C(C)(C)C)nn1-c1cc(Cl)cc(Cl)c1)CC2 [Compound 6-02A, 8-bromo-N-tert-butyl-1-(3,5-dichlorophenyl)-7-methoxy-N-methyl-4,5-dihydrobenzo[g]indazole-3-carboxamide] | 0.861 µM
COc1cc2c(cc1-c1cncc(C#N)c1)-c1c(c(C(=O)N(C)C(C)(C)C)nn1-c1cc(Cl)cc(Cl)c1)CC2 [Compound 6-02B, N-tert-butyl-8-(5-cyano-3-pyridyl)-1-(3,5-dichlorophenyl)-7-methoxy-N-methyl-4,5-dihydrobenzo[g]indazole-3-carboxamide] | 0.0319 µM

Second part, the compound after the results:

IC50 | Compound
0.579 µM | COc1cc2oc3c(C(=O)N4CCOCC4(C)C)nn(-c4ccsc4)c3c2cc1-c1cncc(C#N)c1 [Compound 4-03, 5-[3-(3,3-dimethylmorpholine-4-carbonyl)-6-methoxy-1-(3-thienyl)benzofuro[3,2-c]pyrazol-7-yl]pyridine-3-carbonitrile]
0.586 µM | COc1cc2oc3c(C(=O)N(C)C(C)(C)C)nn(-c4ccsc4)c3c2cc1-c1cncc(C(N)=O)c1 [Compound 4-04]
2.81 µM | COc1cc2oc3c(C(=O)N4CCOCC4(C)C)nn(-c4ccsc4)c3c2cc1-c1ccn(C)n1 [Compound 4-07, (3,3-dimethylmorpholin-4-yl)-[6-methoxy-7-(1-methylpyrazol-3-yl)-1-(3-thienyl)benzofuro[3,2-c]pyrazol-3-yl]methanone]
0.0148 µM | COc1cc2c(cc1-c1cncc(C(N)=O)c1)-c1c(c(C(=O)N3CCOCC3(C)C)nn1-c1cc(Cl)cc(Cl)c1)C2 [Compound 5-01, 5-[1-(3,5-dichlorophenyl)-3-(3,3-dimethylmorpholine-4-carbonyl)-6-methoxy-4H-indeno[1,2-c]pyrazol-7-yl]pyridine-3-carboxamide]
0.197 µM | COc1cc2c(cc1-c1cncc(C(N)=O)c1)-c1c(c(C(=O)N(C)C(C)(C)C)nn1-c1cc(Cl)cc(Cl)c1)C2 [Compound 5-02, N-tert-butyl-7-(5-carbamoyl-3-pyridyl)-1-(3,5-dichlorophenyl)-6-methoxy-N-methyl-4H-indeno[1,2-c]pyrazole-3-carboxamide]
0.00464 µM | COc1cc2c(cc1-c1cncc(C(N)=O)c1)-c1c(c(C(=O)N3CCOCC3(C)C)nn1-c1ccsc1)C2 [Compound 5-03, 5-[3-(3,3-dimethylmorpholine-4-carbonyl)-6-methoxy-1-(3-thienyl)-4H-indeno[1,2-c]pyrazol-7-yl]pyridine-3-carboxamide]
0.0082 µM | COc1cc2c(cc1-c1cncc(C(N)=O)c1)-c1c(c(C(=O)N(C)C(C)(C)C)nn1-c1ccsc1)C2 [Compound 5-04, N-tert-butyl-7-(5-carbamoyl-3-pyridyl)-6-methoxy-N-methyl-1-(3-thienyl)-4H-indeno[1,2-c]pyrazole-3-carboxamide]
0.559 µM | COc1cc2c(cc1-c1ccn(C)n1)-c1c(c(C(=O)N3CCOCC3(C)C)nn1-c1cc(Cl)cc(Cl)c1)C2 [Compound 5-05, [1-(3,5-dichlorophenyl)-6-methoxy-7-(1-methylpyrazol-3-yl)-4H-indeno[1,2-c]pyrazol-3-yl]-(3,3-dimethylmorpholin-4-yl)methanone]
0.494 µM | COc1cc2c(cc1-c1ccn(C)n1)-c1c(c(C(=O)N(C)C(C)(C)C)nn1-c1cc(Cl)cc(Cl)c1)C2 [Compound 5-06, N-tert-butyl-1-(3,5-dichlorophenyl)-6-methoxy-N-methyl-7-(1-methylpyrazol-3-yl)-4H-indeno[1,2-c]pyrazole-3-carboxamide]
0.115 µM | COc1cc2c(cc1-c1ccn(C)n1)-c1c(c(C(=O)N3CCOCC3(C)C)nn1-c1ccsc1)C2 [Compound 5-07, (3,3-dimethylmorpholin-4-yl)-[6-methoxy-7-(1-methylpyrazol-3-yl)-1-(3-thienyl)-4H-indeno[1,2-c]pyrazol-3-yl]methanone]
0.195 µM | COc1cc2c(cc1-c1ccn(C)n1)-c1c(c(C(=O)N(C)C(C)(C)C)nn1-c1ccsc1)C2 [Compound 5-08, N-tert-butyl-6-methoxy-N-methyl-7-(1-methylpyrazol-3-yl)-1-(3-thienyl)-4H-indeno[1,2-c]pyrazole-3-carboxamide]
0.00853 µM | COc1cc2c(cc1-c1cncc(C(N)=O)c1)-c1c(c(C(=O)N(C)C(C)(C)C)nn1-c1cc(Cl)cc(Cl)c1)CC2 [Compound 6-02, N-tert-butyl-8-(5-carbamoyl-3-pyridyl)-1-(3,5-dichlorophenyl)-7-methoxy-N-methyl-4,5-dihydrobenzo[g]indazole-3-carboxamide]
0.163 µM | COc1cc2c(cc1-c1ccn(C)n1)-c1c(c(C(=O)N3CCOCC3(C)C)nn1-c1cc(Cl)cc(Cl)c1)CC2 [Compound 6-03, [1-(3,5-dichlorophenyl)-7-methoxy-8-(1-methylpyrazol-3-yl)-4,5-dihydrobenzo[g]indazol-3-yl]-(3,3-dimethylmorpholin-4-yl)methanone]
0.18 µM | COc1cc2c(cc1-c1ccn(C)n1)-c1c(c(C(=O)N(C)C(C)(C)C)nn1-c1cc(Cl)cc(Cl)c1)CC2 [Compound 6-04, N-tert-butyl-1-(3,5-dichlorophenyl)-7-methoxy-N-methyl-8-(1-methylpyrazol-3-yl)-4,5-dihydrobenzo[g]indazole-3-carboxamide]

From patent publication US20260008783A1, “MODULATORS OF FSHR AND USES THEREOF” (Celmatix Inc., priority 2022, published 2026)
